Experimental data reported in patent US6737421B1, “Cyclo-alkyl substituted benzimidazoles and their use as PARP inhibitors” (Abbott GmbH & Co. KG, priority 1999, dated 2004).

Key:
[1] = literature report; cited from earlier work
[2] = Determination of the solubility in water; type: physicochemical; details: adjusted to pH 5-6 with sodium acetate solution, final dimethyl sulfoxide ≦1% if not a water-soluble salt
Experimental: EXAMPLE B Determination of the Solubility in Water […] If the measured substance is not in the form of a water-soluble salt, it was dissolved in the minimum amount of dimethyl sulfoxide and then diluted with water (final dimethyl sulfoxide concentration ≦1%), after which the pH was again adjusted.

solubility in water [2] [%] | Compound | effect in a model of circulatory failure [1]
 | NC(=O)c1cccc(N)c1 [3-aminobenzamide] | protective effects
< 0.01 | COc1ccc(-c2nc3cccc(C(N)=O)c3[nH]2)cc1 [NU 1076] | 
